Results from patent US20250115600A1, “COVALENT MODIFIERS OF AKT1 AND USES THEREOF” (Terremoto Biosciences, Inc., priority 2022, published 2025).

Legend:
[1] = biological target: AKT1 E17K mutant protein (Homo sapiens (Human), UniProt P31749, E17K); test: Intact mass spectrometry, covalent complex formation and ARQ-092 competition; format: binding; details: protein 1 μM, compound 1.5 μM, 2 hrs at 37° C., NaBH4 reduction; for covalent complex formation with AKT1 E17K mutant protein: absence of competitor; for covalent complex formation with AKT1 E17K mutant protein in presence of competitor: with ARQ092 (50 μM)
Method: (§1) AKT1 WT or AKT1 E17K (1 μM) was treated with a compound from Table 1 (1.5 μM) for 2 hrs at 37° C., with and without ARQ092 (50 μM) competitor as a specificity control. Reversible imines were captured by reductive amination with 5 mM NaBH4 for 5 min. Reduction reactions were quenched by diluting the sample in equal volume acetonitrile+1% TFA, then analyzed by LCMS.
(§2) FIGS. 1 to 25 provide intact mass spectra for AKT1 WT protein and AKT1 E17K mutant protein after incubation with compounds of the present disclosure and subsequent borohydride reduction. […] Further, FIGS. 1 to 10, 12, and 14 to 25 each provide intact mass spectra following the incubation of an AKT1 protein with a compound of the present disclosure both in the absence of a competitor molecule (i.e., ARQ-092, a molecule known to bind to and inhibit the function of AKT1); and in the presence of a significant stoichiometric excess of a competitor molecule.

[2] = biological target: T1, AKT1 WT (Homo sapiens (Human), UniProt P31749); test: as above; format: binding; details: protein 1 μM, compound 1.5 μM, 2 hrs at 37° C., NaBH4 reduction; for covalent complex formation with AKT1 WT protein: absence of competitor; for covalent complex formation with AKT1 WT protein in presence of competitor: with ARQ092 (50 μM)
Method: as §1, §2
Target sequence in this assay (P31749 2-480): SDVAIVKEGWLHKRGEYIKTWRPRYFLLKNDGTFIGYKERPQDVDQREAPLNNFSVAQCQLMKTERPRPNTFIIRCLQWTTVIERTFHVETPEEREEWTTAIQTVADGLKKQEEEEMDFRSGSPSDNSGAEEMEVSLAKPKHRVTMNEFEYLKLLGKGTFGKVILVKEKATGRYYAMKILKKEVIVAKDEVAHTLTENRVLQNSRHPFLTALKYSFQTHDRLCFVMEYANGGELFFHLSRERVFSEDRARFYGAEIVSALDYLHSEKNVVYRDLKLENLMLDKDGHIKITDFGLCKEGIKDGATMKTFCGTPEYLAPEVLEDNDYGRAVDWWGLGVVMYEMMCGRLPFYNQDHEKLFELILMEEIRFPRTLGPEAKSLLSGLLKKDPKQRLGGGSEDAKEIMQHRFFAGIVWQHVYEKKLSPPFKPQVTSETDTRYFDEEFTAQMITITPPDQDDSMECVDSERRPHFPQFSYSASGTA

[3] = biological target: T2, AKT1 E17K (Homo sapiens (Human), UniProt P31749, E17K); test: Dissociation rate by intact protein LCMS after ARQ092 chase; format: binding
Method: (§3) AKT1 WT or AKT1 E17K (1 μM) were treated with a compound of Table 1 (1.5 μM) for 2 hours at 37° C., then ARQ092 (50 μM final concentration) was added to prevent aldehyde-containing compound rebinding after initial dissociation. At various timepoints, aliquots were removed and quenched with 5 mM NaBH4 for 5 min to capture the reversible imine through reductive amination. Reduction reactions were quenched by diluting the sample in equal volume acetonitrile+1% TFA, then analyzed by LCMS. Deconvoluted monoisotopic intensities of unmodified vs. compound-modified mass peaks were compared.
Target sequence in this assay (P31749 2-480 E17K): as the sequence (P31749 2-480) above, with E16K counted along it

[4] = biological target: T1, AKT1 WT; test: as above; format: binding; details: compound 1.5 μM, 2 hours at 37° C., then ARQ092 50 μM
Method: as §3
Target sequence in this assay (P31749 2-480): as the sequence (P31749 2-480) above

[5] = biological target: T2, AKT1 E17K; test: Live cell target engagement (NanoBRET) in HEK293 cells; format: cell-based; details: for IC50: HEK293, 2 hours at 37° C.
Target sequence in this assay (P31749 whole entry E17K): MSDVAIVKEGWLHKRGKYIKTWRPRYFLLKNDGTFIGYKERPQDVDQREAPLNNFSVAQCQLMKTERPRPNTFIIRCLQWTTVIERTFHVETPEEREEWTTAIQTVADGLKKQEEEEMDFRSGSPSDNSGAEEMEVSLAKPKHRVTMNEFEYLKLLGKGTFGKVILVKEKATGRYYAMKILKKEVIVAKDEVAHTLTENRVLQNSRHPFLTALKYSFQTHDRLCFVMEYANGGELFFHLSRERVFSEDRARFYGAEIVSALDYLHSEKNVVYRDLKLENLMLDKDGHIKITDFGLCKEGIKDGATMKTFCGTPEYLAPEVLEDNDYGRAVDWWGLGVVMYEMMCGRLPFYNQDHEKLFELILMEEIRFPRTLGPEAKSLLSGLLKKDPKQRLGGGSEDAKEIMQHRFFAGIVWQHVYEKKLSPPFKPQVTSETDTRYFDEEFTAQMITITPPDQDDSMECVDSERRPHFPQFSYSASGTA

[6] = biological target: T1, AKT1 WT; test: as above; format: cell-based; details: HEK293, 2 hours at 37° C.
Target sequence in this assay (P31749 whole entry): as the sequence (P31749 whole entry E17K) above, with K17E counted along it

[7] = biological target: AKT2 (Homo sapiens (Human), UniProt P31751); test: as above; format: cell-based; details: HEK293, 2 hours at 37° C.
Sequence of AKT2 (P31751 whole entry): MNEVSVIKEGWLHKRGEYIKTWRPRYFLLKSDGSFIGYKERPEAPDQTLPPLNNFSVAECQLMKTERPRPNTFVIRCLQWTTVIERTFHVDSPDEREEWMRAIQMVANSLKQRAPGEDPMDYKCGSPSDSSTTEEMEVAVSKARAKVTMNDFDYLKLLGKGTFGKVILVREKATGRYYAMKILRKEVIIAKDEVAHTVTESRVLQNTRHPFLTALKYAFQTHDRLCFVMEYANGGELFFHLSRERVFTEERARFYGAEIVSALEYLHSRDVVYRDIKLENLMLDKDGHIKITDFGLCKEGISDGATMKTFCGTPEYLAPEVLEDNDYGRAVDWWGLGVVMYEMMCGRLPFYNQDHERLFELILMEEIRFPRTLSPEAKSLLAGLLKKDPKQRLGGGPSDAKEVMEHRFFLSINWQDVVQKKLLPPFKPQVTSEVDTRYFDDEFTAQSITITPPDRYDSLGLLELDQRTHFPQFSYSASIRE

Sequence of AKT1 E17K mutant protein (P31749 2-480 E17K): as the sequence (P31749 2-480) above, with E16K counted along it

Structure (SMILES)	covalent complex formation with AKT1 E17K mutant protein [1]	covalent complex formation with AKT1 E17K mutant protein in presence of competitor [1]	covalent complex formation with AKT1 WT protein [2]	covalent complex formation with AKT1 WT protein in presence of competitor [2]	AKT1 E17K t1/2 ([3]; compound 1.5 μM, 2 hours at 37° C., then ARQ092 50 μM) [min]	Off-rate Selectivity E17K/WT ([3]; ratio of t1/2)	AKT1 (WT) t1/2 [4] [min]	AKT1 E17K IC50: Selectivity vs AKT1 WT [5]	AKT1 E17K IC50: Selectivity vs AKT2 [5]	IC50 [5] [nM]	IC50 [6] [nM]	IC50 [7] [nM]
Nc1ncccc1-c1nc2ccc(-c3ccccc3)nc2n1-c1ccc(C2(NC(=O)Cc3ccc(C=O)c(O)c3F)CC2)cc1 [Compound 31, N-(1-{4-[2-(2-aminopyridin-3-yl)-5-phenylimidazo[4,5-b]pyridin-3-yl]phenyl}cyclopropyl)-2-(2-fluoro-4-formyl-3-hydroxyphenyl)acetamide]	significant presence of a covalent complex	Essentially little to no covalent complex formation	presence of a covalent complex	Essentially little to no covalent complex formation	151	1.8	85.9	1.4	5.8	< 100	< 100	< 100
CC(=O)Nc1cc(CC(=O)NCc2ccc(-n3c(-c4cccnc4N)nc4cccnc43)cc2)ccc1C=O [Compound 91, 2-(3-acetamido-4-formylphenyl)-N-(4-(2-(2-aminopyridin-3-yl)-3H-imidazo[4,5-b]pyridin-3-yl)benzyl)acetamide]	presence of a covalent complex	Essentially no covalent complex formation	presence of a covalent complex	Essentially no covalent complex formation				5	120	< 100	100 to 500	> 500
Nc1ncccc1-c1nc2ccc(N3CCOCC3)nc2n1-c1ccc(CNCCc2ccc(C=O)c(O)c2)cc1 [Compound 107, 4-(2-((4-(2-(2-aminopyridin-3-yl)-5-morpholino-3H-imidazo[4,5-b]pyridin-3-yl)benzyl)amino)ethyl)-2-hydroxybenzaldehyde]	only peaks corresponding to unmodified mutant protein	only peaks corresponding to unmodified mutant protein	only peaks corresponding to unmodified WT protein	only peaks corresponding to unmodified WT protein				3.5	76	< 100	100 to 500	> 500
Nc1ncccc1-c1nc2cccnc2n1-c1ccc(CNCCc2ccc(C=O)c(O)c2)cc1 [Compound 114, 4-(2-((4-(2-(2-aminopyridin-3-yl)-3H-imidazo[4,5-b]pyridin-3-yl)benzyl)amino)ethyl)-2-hydroxybenzaldehyde]	presence of covalent complex	Essentially no covalent complex formation	presence of covalent complex	Essentially no covalent complex formation				2.2	14	< 100	100 to 500	> 500
Nc1ncccc1-c1nc2ccc(-c3ccccc3)nc2n1-c1ccc(CNCCc2ccc(C=O)c(O)c2F)cc1 [Compound 122, 4-{2-[({4-[2-(2-aminopyridin-3-yl)-5-phenylimidazo[4,5-b]pyridin-3-yl]phenyl}methyl)amino]ethyl}-3-fluoro-2-hydroxybenzaldehyde]	presence of covalent complex	Essentially no covalent complex formation	presence of covalent complex	Essentially no covalent complex formation				1.3	3.2	< 100	< 100	< 100
